Converted amounts (≈) assume the structure as drawn. Like-named read-outs stand apart in the source and are kept apart here. One block for each compound: values may come before it.
Tests used:
[1] = Storage stability of Formulations 1-3 (dl-α-tocopherol assay, total impurities); assay type: physicochemical; conditions: various storage conditions
Procedure: Three-week and four-week storage stabilities, as per Table 15, of Formulations 1-3 were determined under standard storage conditions of 5° C., storage at room temperature, and storage at 40° C./75% RH. The total impurities were less than 1% at the end of three- or four-week storage at 5° C., RT, and 40° C./75% RH.

[2] = Viscosities of the components in the prototype formulations; assay type: physicochemical; conditions: neat excipient
Description: Once injected into the muscle tissue, it forms a depot and the formulation components begin to diffuse into the surrounding tissue and the circulatory system. The rate of diffusion for each component depends on the solubility, permeability, and viscosity of the formulation in the local environment of the depot. Notwithstanding the complexity of the in vivo situation, and without wishing to be held to a particular theory, it is expected that the viscosity of the formulation is a critical factor that affects the diffusion of the formulation components from the site of injection, including from the point of view of ease of injection, diffusion into the muscle tissue, and rate of absorption.

[3] = tested on: HR-positive metastatic breast cancer; conditions: cited from earlier work
[4] = cited from earlier work

Stability of dl-α-Tocopherol in the formulations [1]: unstable and susceptible to degradation
Compound: Cc1c(C)c2c(c(C)c1O)CCC(C)(CCCC(C)CCCC(C)CCCC(C)C)O2 (racemic) [dl-α-Tocopherol, dl-α-tocopherol]

Viscosity (cp) [2]: 5.40 cp
Compound: OCc1ccccc1 [Benzyl alcohol]

Viscosity (cp) [2]: 1.04 cp
Compound: CCO [Ethyl alcohol (Ethanol), Ethanol]

Compound: C[C@]12CC[C@@H]3c4ccc(O)cc4C[C@@H](CCCCCCCCC[S+]([O-])CCCC(F)(F)C(F)(F)F)[C@H]3[C@@H]1CC[C@@H]2O (stereo partly drawn) [Fulvestrant, 7α-[9-[(4,4,5,5,5-pentafluoropentyl)sulfinyl]nonyl]-estra-1,3,5(10)-triene-3,17β-diol]
Median overall survival ([3]; fulvestrant 250 mg IM): 22.3 months | Median overall survival ([3]; fulvestrant 500 mg IM): 26.4 months | Progression-free survival (PFS) ([3]; fulvestrant 500 mg compared with 250 mg): statistically significant increase | Solubility (mg/ml) at 25° C. ([4]; in Benzyl alcohol, 25° C.): >200 mg/mL | Solubility (mg/ml) at 25° C. ([4]; in Benzyl benzoate, 25° C.): 6.15 mg/mL (≈ 10.1 mM) | Solubility (mg/ml) at 25° C. ([4]; in Ethanol, 25° C.): >200 mg/mL | Solubility (mg/ml) at 25° C. ([4]; in Ethyl oleate, 25° C.): 1.25 mg/mL (≈ 2.06 mM) | Solubility (mg/ml) at 25° C. ([4]; in Isopropyl myristate, 25° C.): 0.80 mg/mL (≈ 1.32 mM) | Solubility (mg/ml) at 25° C. ([4]; in Migloyl 810, 25° C.): 3.06 mg/mL (≈ 5.04 mM) | Solubility (mg/ml) at 25° C. ([4]; in Migloyl 812, 25° C.): 2.72 mg/mL (≈ 4.48 mM) | Solubility (mg/ml) at 25° C. ([4]; in Polyethylene glycol (PEG 400), 25° C.): 22.5 mg/mL (≈ 37.1 mM) | Solubility (mg/ml) at 25° C. ([4]; in Propylene glycol, 25° C.): 4.0 mg/mL (≈ 6.59 mM) | Solubility (mg/ml) at 25° C. ([4]; in SPAN ® 85, 25° C.): 3.79 mg/mL (≈ 6.25 mM) | Solubility (mg/ml) at 25° C. ([4]; in Sesame oil, 25° C.): 0.58 mg/mL (≈ 0.956 mM)

Viscosity (cp) [2]: 42.00 cp
Compound: CC(O)CO (stereo not shown) [Propylene glycol]

Viscosity (cp) [2]: 1000-2000 cp
Compound: sorbitan monolaurate [SPAN ® 20]

From US20210145846A1 (Kashiv BioSciences, LLC, priority 2017, published 2021)
